From patent publication US20250249000A1, “SIK3 INHIBITORS FOR TREATING DISEASES RESISTANT TO DEATH RECEPTOR SIGNALLING” (IOMX THERAPEUTICS AG, priority 2022, published 2025)
Entries after “also recorded” stand apart in the source; their conditions may differ.

Experiments:
Type in all cases: cell-based
[1] = test system: murine colorectal carcinoma cell line MC38; assay: TNF induced apoptosis in MC38 cells in combination with SIK3 inhibitor; conditions: 1 ng/ml TNF plus E9 vs DMSO control, caspase 3/7 at 8 hours, annexin V and cytotox red at 24 hours, FIG. 3
Description: (§1) The experiments were done briefly as follows: murine colorectal carcinoma cell line MC38, murine triple negative breast cancer cell line EMT6 and human melanoma tumor cell line A375 were treated with 1 ng/ml TNF, 0.8 ng/ml murine death receptor 5 targeting antibody (clone MD5-1) and 10 ng/ml complexed TRAIL, respectively, or with the appropriate negative controls, in combination with the SIK3 inhibitor E9 and an associated DMSO control. The onset of tumor cell death was monitored 8 hours after treatment initiation by analyzing cleavage of effector caspases 3/7 using Caspase-Glo® assay from Promega according to manufacturer's protocol. In addition, 24 hours after treatment initiation, the increase in extracellular phosphatidylserine expression was measured by annexin V expression level and cell membrane disruption by cytotox red staining, both according to manufacturer's protocol.

[2] = test system: murine triple negative breast cancer cell line EMT6; assay: Death receptor 5 antibody (MD5-1) induced apoptosis in EMT6 cells in combination with SIK3 inhibitor; conditions: 0.8 ng/ml murine death receptor 5 targeting antibody (clone MD5-1) plus E9 vs DMSO control, caspase 3/7 at 8 hours, annexin V and cytotox red at 24 hours, FIG. 4
Description: as §1

[3] = test system: human melanoma tumor cell line A375; assay: Complexed TRAIL induced apoptosis in A375 cells in combination with SIK3 inhibitor; conditions: 10 ng/ml complexed TRAIL plus E9 vs DMSO control, caspase 3/7 at 8 hours, annexin V and cytotox red at 24 hours, FIG. 5
Description: as §1

Cc1nc(Nc2ncc(C(=O)Nc3c(CF)csc3Cl)s2)cc(N2CCN(C)CC2)n1 [Compound E9, N-(2-chloro-4-(fluoromethyl)thiophen-3-yl)-2-((2-methyl-6-(4-methylpiperazin-1-yl)pyrimidin-4-yl)amino)thiazole-5-carboxamide] was tested, and the “enhancement of death receptor induced apoptosis (caspase-3/7 cleavage, annexin V, cytotox red)” value (“enhancement” below) [1] was “potent enhancement of death receptor induced apoptosis; also recorded: enhanced death receptor mediated apoptosis”, the “enhancement” value [2] was “potent enhancement of death receptor induced apoptosis; also recorded: enhanced death receptor mediated apoptosis” and the “enhancement” value [3] was “enhanced death receptor mediated apoptosis; also recorded: potent enhancement of death receptor induced apoptosis”.
